# Reference: patent US12216125B2, “Method and kit for isotope-labelling of a glutathione-containing biological sample for mass spectrometry” (TECHNISCHE UNIVERSITÄT WIEN, priority 2018, dated 2025)
# Tested on: A549 lung carcinoma cells
# Assay: Oxidative stress induction in A549 cells, GSH/GSSG measured by LC-MS/MS
# Format: cell-based, human
# Conditions: 100 μmol/L H2O2 for 15 min
# Protocol: Cell culture: A549 human lung carcinoma cells were obtained from CLS Cell Lines Service, Eppelheim, Germany, and were cultured in RPMI medium supplemented with 10% fetal bovine serum and 2 mmol/L glutamine in a 5% CO2, 37° C. incubator. For H2O2 treatment, cells were seeded in 12-well plates (300000 cells/well) and after a day in culture treated with 500 μl of control (Ca2+, Mg2+-PBS) or 100 μmol/L H2O2 in Ca2+, Mg2+-PBS for 15 min followed by two PBS washing steps and the NEM (2.5 mmol/L) incubation step. The detailed stabilisation workflow is illustrated in FIG. 1 and example 2.
# Method overview: The method was tested and fully optimized for three different sample types: cells, blood and tissue. In clinical measurements available sample amount is often a limiting factor. The high sensitivity of the presented method enables analysis of scarce samples as minimal sample amounts are required. Typically, 5 μL of blood, 3-5 mg of tissue sample or 300.000 cells were used as starting material. […] All three analytes GSH-NEM, GSH-d5-NEM and ^13C, ^15N-GSH-d5-NEM (IS) were then simultaneously measured by LC-MS/MS using an MRM-based approach (FIG. 1, step 4), see also example 4.
# Chromatography was carried out on a Dionex UltiMate 3000 system equipped with a Zorbax SB-C18 column (50 mm×4.6 mm, 1.8 μm, Agilent, USA). […] The sum of areas under both peaks was used for integration and quantification. […]
structure (smiles),measurement,setting,value
OO [H2O2],GSH/GSSG ratio,GSSG measured as GSH-d5-NEM,drastically reduced
same,intracellular GSH values,vs control PBS,depleted
